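Exposure lasted 48 hours, with cells grown in 96-well plates and compounds tested at five concentrations. GI50 is the concentration that inhibits growth by half.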 The source made the active and inactive calls. No stated cut-off is given here; in the data, active = GI50 up to about 1.1 µM and inactive = higher.
Experiments:
Experiment in all cases: inhibition of tumour cell growth, NCI panel, 48 h
KM12 = system: KM12
CCRF-CEM = system: CCRF-CEM
MCF7 = system: MCF7
NCI-H23 = system: NCI-H23
MDA-MB-231 = system: MDA-MB-231
HOP-92 = system: HOP-92
HCC 2998 = system: HCC 2998
786-0 = system: 786-0
OVCAR-3 = system: OVCAR-3
A498 = system: A498
T47D = system: T47D
SNB-75 = system: SNB-75
NCI-H460 = system: NCI-H460
SK-MEL-28 = system: SK-MEL-28
MOLT-4 = system: MOLT-4
A549 = system: A549
MDA-MB-435 = system: MDA-MB-435
M14 = system: M14
OVCAR-5 = system: OVCAR-5
SW-620 = system: SW-620
NCI/ADR-RES = system: NCI/ADR-RES
DU-145 = system: DU-145
HCT-15 = system: HCT-15
SF-539 = system: SF-539
CAKI-1 = system: CAKI-1
ACHN = system: ACHN
SF-268 = system: SF-268
PC-3 = system: PC-3
HOP-62 = system: HOP-62
MDA-N = system: MDA-N
NCI-H226 = system: NCI-H226
K562 = system: K562
EKVX = system: EKVX
SF-295 = system: SF-295
U-251 = system: U-251
BT-549 = system: BT-549
HT-29 = system: HT-29
SR = system: SR
RXF 393 = system: RXF 393
UO-31 = system: UO-31
Malme-3M = system: Malme-3M
Hs-578T = system: Hs-578T
OVCAR-4 = system: OVCAR-4
COLO 205 = system: COLO 205
OVCAR-8 = system: OVCAR-8
HCT-116 = system: HCT-116
HL-60 = system: HL-60
RPMI-8226 = system: RPMI-8226
UACC-62 = system: UACC-62
SNB-19 = system: SNB-19
NCI-H522 = system: NCI-H522
UACC-257 = system: UACC-257
SK-OV-3 = system: SK-OV-3
LOX IMVI = system: LOX IMVI
TK-10 = system: TK-10
IGROV-1 = system: IGROV-1
SK-MEL-5 = system: SK-MEL-5
SN12C = system: SN12C

Clc1nc(Cl)nc(NC23CC4CC(CC(C4)C2)C3)n1
GI50 (KM12): 14.9 µM (inactive) | GI50 (CCRF-CEM): 7.55 µM (inactive) | GI50 (MCF7): 32.1 µM (inactive) | GI50 (NCI-H23): 18.5 µM (inactive) | GI50 (MDA-MB-231): 17.9 µM (inactive) | GI50 (HOP-92): 17.2 µM (inactive) | GI50 (HCC 2998): 20.3 µM (inactive) | GI50 (786-0): 17.3 µM (inactive) | GI50 (OVCAR-3): 18.8 µM (inactive) | GI50 (A498): > 43.4 µM (inactive) | GI50 (T47D): 17.2 µM (inactive) | GI50 (SNB-75): 17.5 µM (inactive) | GI50 (NCI-H460): 26.3 µM (inactive) | GI50 (SK-MEL-28): 19.6 µM (inactive) | GI50 (MOLT-4): 17.9 µM (inactive) | GI50 (A549): 20 µM (inactive) | GI50 (MDA-MB-435): 16.2 µM (inactive) | GI50 (M14): 18 µM (inactive) | GI50 (OVCAR-5): 19.5 µM (inactive) | GI50 (SW-620): 16.7 µM (inactive) | GI50 (NCI/ADR-RES): 21 µM (inactive) | GI50 (DU-145): 16.7 µM (inactive) | GI50 (HCT-15): 15.6 µM | GI50 (SF-539): 17.5 µM (inactive) | GI50 (CAKI-1): 8.09 µM (inactive) | GI50 (ACHN): 35.3 µM (inactive) | GI50 (SF-268): 19.2 µM (inactive) | GI50 (PC-3): > 34.8 µM (inactive) | GI50 (HOP-62): 17.7 µM (inactive) | GI50 (MDA-N): 17.4 µM (inactive) | GI50 (NCI-H226): 21 µM (inactive) | GI50 (K562): 13.7 µM (inactive) | GI50 (EKVX): 19.5 µM (inactive) | GI50 (SF-295): 19.7 µM (inactive) | GI50 (U-251): 15.5 µM (inactive) | GI50 (BT-549): 19.3 µM (inactive) | GI50 (HT-29): 17.9 µM (inactive) | GI50 (SR): 20.1 µM (inactive) | GI50 (RXF 393): 16.7 µM (inactive) | GI50 (UO-31): 9.33 µM (inactive) | GI50 (Malme-3M): 16.2 µM (inactive) | GI50 (Hs-578T): 11.8 µM (inactive) | GI50 (OVCAR-4): 17.7 µM (inactive) | GI50 (COLO 205): 17.5 µM (inactive) | GI50 (OVCAR-8): 18.1 µM (inactive) | GI50 (HCT-116): 17.1 µM (inactive) | GI50 (HL-60): 3.44 µM (inactive) | GI50 (RPMI-8226): 12 µM (inactive) | GI50 (UACC-62): 17.9 µM (inactive) | GI50 (SNB-19): 21.4 µM (inactive) | GI50 (NCI-H522): 16.7 µM (inactive) | GI50 (UACC-257): 17.3 µM (inactive) | GI50 (SK-OV-3): 32.3 µM (inactive) | GI50 (LOX IMVI): 13.4 µM (inactive) | GI50 (TK-10): 17.7 µM (inactive) | GI50 (IGROV-1): 13.7 µM (inactive) | GI50 (SK-MEL-5): 13.7 µM (inactive) | GI50 (SN12C): 18.1 µM (inactive)

CC(=O)OCC1OC(n2c(Br)nc3c2c(=O)n(C)c(=O)n3C)C(OC(C)=O)C1OC(C)=O (stereo unspecified)
GI50 (KM12): 64.9 µM (inactive) | GI50 (MCF7): 69.8 µM (inactive) | GI50 (NCI-H23): 77.3 µM (inactive) | GI50 (MDA-MB-231): > 100 µM (inactive) | GI50 (HOP-92): 83 µM (inactive) | GI50 (HCC 2998): > 100 µM (inactive) | GI50 (786-0): 89.9 µM (inactive) | GI50 (OVCAR-3): 48.1 µM (inactive) | GI50 (A498): 43 µM (inactive) | GI50 (T47D): > 100 µM (inactive) | GI50 (SNB-75): 85.1 µM (inactive) | GI50 (NCI-H460): 84.3 µM (inactive) | GI50 (SK-MEL-28): > 100 µM (inactive) | GI50 (MOLT-4): > 100 µM (inactive) | GI50 (A549): > 100 µM (inactive) | GI50 (MDA-MB-435): 29.4 µM (inactive) | GI50 (M14): 77.1 µM (inactive) | GI50 (OVCAR-5): > 100 µM (inactive) | GI50 (SW-620): 76.9 µM (inactive) | GI50 (NCI/ADR-RES): > 100 µM (inactive) | GI50 (DU-145): 38.2 µM (inactive) | GI50 (HCT-15): > 100 µM | GI50 (SF-539): 59.2 µM (inactive) | GI50 (CAKI-1): > 100 µM (inactive) | GI50 (ACHN): 48.3 µM (inactive) | GI50 (SF-268): 62.7 µM (inactive) | GI50 (PC-3): 45.8 µM (inactive) | GI50 (HOP-62): > 100 µM (inactive) | GI50 (MDA-N): 33.6 µM (inactive) | GI50 (NCI-H226): 71.6 µM (inactive) | GI50 (K562): 53.3 µM (inactive) | GI50 (EKVX): 64.7 µM (inactive) | GI50 (SF-295): > 100 µM (inactive) | GI50 (U-251): 39.8 µM (inactive) | GI50 (BT-549): 28.8 µM (inactive) | GI50 (HT-29): 43.8 µM (inactive) | GI50 (SR): 19.9 µM (inactive) | GI50 (RXF 393): > 100 µM (inactive) | GI50 (UO-31): > 100 µM (inactive) | GI50 (Malme-3M): > 100 µM (inactive) | GI50 (Hs-578T): 45.8 µM (inactive) | GI50 (OVCAR-4): 27.5 µM (inactive) | GI50 (COLO 205): 75 µM (inactive) | GI50 (OVCAR-8): 42 µM (inactive) | GI50 (HCT-116): 35.1 µM (inactive) | GI50 (HL-60): 21.3 µM (inactive) | GI50 (RPMI-8226): 27.9 µM (inactive) | GI50 (UACC-62): 67.6 µM (inactive) | GI50 (SNB-19): 74.8 µM (inactive) | GI50 (NCI-H522): 45.9 µM (inactive) | GI50 (UACC-257): 50.2 µM (inactive) | GI50 (SK-OV-3): > 100 µM (inactive) | GI50 (LOX IMVI): 43.2 µM (inactive) | GI50 (TK-10): > 100 µM (inactive) | GI50 (IGROV-1): > 100 µM (inactive) | GI50 (SK-MEL-5): 31.9 µM (inactive) | GI50 (SN12C): 79.4 µM (inactive)

CN(CCNC(=O)c1n[nH]c2c1Cc1ccccc1-2)CCNC(=O)c1n[nH]c2c1Cc1ccccc1-2
GI50 (KM12): 17.3 µM (inactive) | GI50 (CCRF-CEM): 18.1 µM (inactive) | GI50 (MCF7): 19.3 µM (inactive) | GI50 (NCI-H23): 17.2 µM (inactive) | GI50 (MDA-MB-231): 19 µM (inactive) | GI50 (HOP-92): 17.3 µM (inactive) | GI50 (HCC 2998): 15.4 µM (inactive) | GI50 (786-0): 16 µM (inactive) | GI50 (OVCAR-3): 14.9 µM (inactive) | GI50 (A498): 18.6 µM (inactive) | GI50 (T47D): 18.8 µM (inactive) | GI50 (SNB-75): 12.5 µM (inactive) | GI50 (NCI-H460): 18.1 µM (inactive) | GI50 (SK-MEL-28): 18.3 µM (inactive) | GI50 (MOLT-4): 19.4 µM (inactive) | GI50 (A549): 20.6 µM (inactive) | GI50 (MDA-MB-435): 17.5 µM (inactive) | GI50 (M14): 18.7 µM (inactive) | GI50 (OVCAR-5): 18.6 µM (inactive) | GI50 (SW-620): 22.1 µM (inactive) | GI50 (NCI/ADR-RES): 37.8 µM (inactive) | GI50 (DU-145): 15.5 µM (inactive) | GI50 (HCT-15): 18.4 µM | GI50 (CAKI-1): 16.7 µM (inactive) | GI50 (ACHN): 17.1 µM (inactive) | GI50 (SF-268): 19.5 µM (inactive) | GI50 (PC-3): 17.8 µM (inactive) | GI50 (HOP-62): 14.8 µM (inactive) | GI50 (MDA-N): 16.5 µM (inactive) | GI50 (NCI-H226): 19.1 µM (inactive) | GI50 (K562): 18 µM (inactive) | GI50 (EKVX): 20.6 µM (inactive) | GI50 (SF-295): 16.6 µM (inactive) | GI50 (U-251): 19.3 µM (inactive) | GI50 (BT-549): 16.8 µM (inactive) | GI50 (HT-29): 17.7 µM (inactive) | GI50 (SR): 19.5 µM (inactive) | GI50 (RXF 393): 15.3 µM (inactive) | GI50 (UO-31): 19.4 µM (inactive) | GI50 (Malme-3M): 19.2 µM (inactive) | GI50 (Hs-578T): 25.3 µM (inactive) | GI50 (OVCAR-4): 15.9 µM (inactive) | GI50 (COLO 205): 17.3 µM (inactive) | GI50 (OVCAR-8): 20.9 µM (inactive) | GI50 (HCT-116): 16.2 µM (inactive) | GI50 (HL-60): 21.1 µM (inactive) | GI50 (UACC-62): 19 µM (inactive) | GI50 (SNB-19): 16.8 µM (inactive) | GI50 (NCI-H522): 17.5 µM (inactive) | GI50 (UACC-257): 18.8 µM (inactive) | GI50 (SK-OV-3): 16.5 µM (inactive) | GI50 (LOX IMVI): 18.9 µM (inactive) | GI50 (TK-10): 19.1 µM (inactive) | GI50 (IGROV-1): 16.3 µM (inactive) | GI50 (SK-MEL-5): 16.9 µM (inactive) | GI50 (SN12C): 16.7 µM (inactive)

From ChEMBL document CHEMBL1201862, “PubChem BioAssay data set” (2004)
